# Test results as given in US6821967B2, “Substituted piperazine derivatives, the preparation thereof and their use as medicaments” (Boehringer Ingelheim Pharma KG, priority 1999, dated 2004).
row,SMILES,melting point
1,"O=C(NCc1ccc(F)cc1)C1(CCCCN2CCN(c3ccc4c(Cl)cccc4n3)CC2)c2ccccc2-c2ccccc21 [Example 54, 9-{4-[4-(5-chloro-quinolin-2-yl)-piperazin-1-yl]-butyl}-9H-fluorene-9-carboxylic acid-4-fluoro-benzylamide]",140 °C
2,"O=C(NCc1ccc(F)cc1)C1(CCCCN2CCN(c3ccc4cccc(Cl)c4n3)CC2)c2ccccc2-c2ccccc21 [Example 55, 9-{4-[4-(8-chloro-quinolin-2-yl)-piperazin-1-yl]-butyl}-9H-fluorene-9-carboxylic acid-4-fluoro-benzylamide]",66 °C
3,"O=C(NCc1ccc(F)cc1)C1(CCCCN2CCN(c3cnc4ccccc4n3)CC2)c2ccccc2-c2ccccc21 [Example 57, 9-[4-(4-quinoxalin-2-yl-piperazin-1-yl)-butyl]-9H-fluorene-9-carboxylic acid-4-fluoro-benzylamide]",160 °C
4,"O=C(NCc1ccc(F)cc1)C1(CCCCN2CCN(c3ncc4ccccc4n3)CC2)c2ccccc2-c2ccccc21 [Example 58, 9-[4-(4-quinazolin-2-yl-piperazin-1-yl)-butyl]-9H-fluorene-9-carboxylic acid-4-fluoro-benzylamide]",160 °C
5,"O=C(NCc1ccc(F)cc1)C1(CCCCN2CCN(c3nc4ccccc4s3)CC2)c2ccccc2-c2ccccc21 [Example 59, 9-[4-(4-benzothiazol-2-yl-piperazin-1-yl)-butyl]-9H-fluorene-9-carboxylic acid-4-fluoro-benzylamide]",160 °C
6,"Cn1c(N2CCN(CCCCC3(C(=O)NCc4ccc(F)cc4)c4ccccc4-c4ccccc43)CC2)nc2ccccc21 [Example 60, 9-{4-[4-(1-methyl-1H-benzimidazol-2-yl)-piperazin-1-yl]-butyl}-9H-fluorene-9-carboxylic acid-4-fluoro-benzylamide]",55 °C
7,"CCn1c(N2CCN(CCCCC3(C(=O)NCc4ccc(F)cc4)c4ccccc4-c4ccccc43)CC2)nc2ccccc21 [Example 61, 9-{4-[4-(1-ethyl-1H-benzimidazol-2-yl)-piperazin-1-yl]-butyl}-9H-fluorene-9-carboxylic acid-4-fluoro-benzylamide]",166 °C
8,"Cn1c(N2CCN(CCCCC3(C(=O)NCc4ccc(F)cc4)c4ccccc4-c4ccccc43)CC2)nc2ccc(F)cc21 [Example 62, 9-{4-[4-(6-fluoro-1-methyl-1H-benzimidazol-2-yl)-piperazin-1-yl]-butyl}-9H-fluorene-9-carboxylic acid-4-fluoro-benzylamide]",43 °C
9,"Cn1c(N2CCN(CCCCC3(C(=O)NCc4ccc(F)cc4)c4ccccc4-c4ccccc43)CC2)nc2cccnc21 [Example 63, 9-{4-[4-(3-methyl-3H-imidazo[4,5]-pyridin-2-yl)-piperazin-1-yl]-butyl}-9H-fluorene-9-carboxylic acid-4-fluoro-benzylamide]",153 °C
10,"C[C@H]1CN(c2ccc3ccccc3n2)CCN1CCCCC1(C(=O)NCc2ccc(F)cc2)c2ccccc2-c2ccccc21 [Example 64, 9-{4-[(S)-2-methyl-4-quinolin-2-yl-piperazin-1-yl]-butyl}-9H-fluorene-9-carboxylic acid-4-fluoro-benzylamide]",124 °C
11,"C[C@@H]1CN(c2ccc3ccccc3n2)C[C@H](C)N1CCCCC1(C(=O)NCc2ccc(F)cc2)c2ccccc2-c2ccccc21 [Example 65, 9-[4-(cis-2,6-dimethyl-4-quinolin-2-yl-piperazin-1-yl)butyl]-9H-fluorene-9-carboxylic acid-4-fluoro-benzylamide]",62 °C
12,"C[C@@H]1CN(c2ccc3c(Cl)cccc3n2)C[C@H](C)N1CCCCC1(C(=O)NCc2ccc(F)cc2)c2ccccc2-c2ccccc21 [Example 66, 9-{4-[4-(5-chloro-quinolin-2-yl)-cis-2,6-dimethyl-piperazin-1-yl]-butyl}-9H-fluorene-9-carboxylic acid-4-fluoro-benzylamide]",136 to 137 °C
13,"C[C@@H]1CN(c2ncc3ccccc3n2)C[C@H](C)N1CCCCC1(C(=O)NCc2ccc(F)cc2)c2ccccc2-c2ccccc21 [Example 67, 9-[4-(cis-2,6-dimethyl-4-quinazoline-2-yl-piperazin-1-yl)-butyl]-9H-fluorene-9-carboxylic acid-4-fluoro-benzylamide]",172 °C
14,"C[C@@H]1CN(c2nc3ccccc3o2)C[C@H](C)N1CCCCC1(C(=O)NCc2ccc(F)cc2)c2ccccc2-c2ccccc21 [Example 69, 9-[4-(4-benzoxazol-2-yl-cis-2,6-dimethyl-piperazin-1-yl)-butyl]-9H-fluorene-9-carboxylic acid-4-fluoro-benzylamide]",153 °C
15,"C[C@@H]1CN(c2nc3ccccc3s2)C[C@H](C)N1CCCCC1(C(=O)NCc2ccc(F)cc2)c2ccccc2-c2ccccc21 [Example 70, 9-[4-(4-benzothiazol-2-yl-cis-2,6-dimethyl-piperazin-1-yl)-butyl]-9H-fluorene-9-carboxylic acid-4-fluoro-benzylamide]",171 °C
16,"COc1ccc(CNC(=O)C2(CCCCN3CCN(c4ccc5c(Cl)cccc5n4)CC3)c3ccccc3-c3ccccc32)cc1 [Example 73, 9-{4-[4-(5-chloro-quinolin-2-yl)-piperazin-1-yl]-butyl}-9H-fluorene-9-carboxylic acid-4-methoxy-benzylamide]",135 to 136 °C

row,SMILES,melting point
1,"COc1ccc(CNC(=O)C2(CCCCN3CCN(c4ncc5ccccc5n4)CC3)c3ccccc3-c3ccccc32)cc1 [Example 74, 9-[4-(4-quinazolin-2-yl-piperazin-1-yl)-butyl]-9H-fluorene-9-carboxylic acid-4-methoxy-benzylamide]",143 to 144 °C
2,"COc1ccc(CNC(=O)C2(CCCCN3CCN(c4nc5ccccc5s4)CC3)c3ccccc3-c3ccccc32)cc1 [Example 76, 9-[4-(4-benzothiazol-2-yl-piperazin-1-yl)-butyl]-9H-fluorene-9-carboxylic acid-4-methoxy-benzylamide]",145 °C
3,"COc1cccc(CNC(=O)C2(CCCCN3CCN(c4ccc5ccccc5n4)CC3)c3ccccc3-c3ccccc32)c1 [Example 81, 9-[4-(4-quinolin-2-yl-piperazin-1-yl)-butyl]-9H-fluorene-9-carboxylic acid-3-methoxy-benzylamide]",114 to 116 °C
4,"COc1ccc(CNC(=O)C2(CCCCN3CCN(c4ccc5ccccc5n4)CC3)c3ccccc3-c3ccccc32)c(OC)c1 [Example 82, 9-[4-(4-quinolin-2-yl-piperazin-1-yl)-butyl]-9H-fluorene-9-carboxylic acid-2,4-dimethoxy-benzylamide]",44 °C
5,"COc1ccc(CNC(=O)C2(CCCCN3CCN(c4ccc5ccccc5n4)CC3)c3ccccc3-c3ccccc32)cc1OC [Example 83, 9-[4-(4-quinolin-2-yl-piperazin-1-yl)-butyl]-9H-fluorene-9-carboxylic acid-3,4-dimethoxy-benzylamide]",118 °C
6,"O=C(NCc1ccc(F)cc1F)C1(CCCCN2CCN(c3ccc4ccccc4n3)CC2)c2ccccc2-c2ccccc21 [Example 84, 9-[4-(4-quinolin-2-yl-piperazin-1-yl)-butyl]-9H-fluorene-9-carboxylic acid-2,4-difluoro-benzylamide]",116 to 118 °C
7,"O=C(NCc1ccc(F)c(F)c1)C1(CCCCN2CCN(c3ccc4ccccc4n3)CC2)c2ccccc2-c2ccccc21 [Example 85, 9-[4-(4-quinolin-2-yl-piperazin-1-yl)-butyl]-9H-fluorene-9-carboxylic acid-3,4-difluoro-benzylamide]",141 to 143 °C
8,"O=C(NCC(F)(F)C(F)(F)F)C1(CCCCN2CCN(c3ccc4ccccc4n3)CC2)c2ccccc2-c2ccccc21 [Example 86, 9-[4-(4-quinolin-2-yl-piperazin-1-yl)-butyl]-9H-fluorene-9-carboxylic acid-(2,2,3,3,3-pentafluoro-propyl)-amide]",120 °C
9,"Cn1c(N2CCN(CCCCC3(C(=O)NCC(F)(F)C(F)(F)F)c4ccccc4-c4ccccc43)CC2)nc2ccccc21 [Example 87, 9-{4-[4-(1-methyl-1H-benzimidazol-2-yl)-piperazin-1-yl]-butyl}-9H-fluorene-9-carboxylic acid-(2,2,3,3,3-pentafluoro-propyl)-amide]",120 °C
10,"O=C(NCc1ccncc1)C1(CCCCN2CCN(c3ccc4ccccc4n3)CC2)c2ccccc2-c2ccccc21 [Example 88, 9-[4-(4-quinolin-2-yl-piperazin-1-yl)-butyl]-9H-fluorene-9-carboxylic acid-(pyridin-4-ylmethyl)-amide]",166 to 168 °C
11,"O=C(NCc1cccs1)C1(CCCCN2CCN(c3ccc4ccccc4n3)CC2)c2ccccc2-c2ccccc21 [Example 90, 9-[4-(4-quinolin-2-yl-piperazin-1-yl)-butyl]-9H-fluorene-9-carboxylic acid-(thiophen-2-ylmethyl)-amide]",45 to 50 °C
12,"CCCNC(=O)C1(CCCCN2CCN(c3nc4ccccc4n3C)CC2)c2ccccc2-c2ccccc21 [Example 91, 9-{4-[4-(1-methyl-1H-benzimidazol-2-yl)-piperazin-1-yl]-butyl}-9H-fluorene-9-carboxylic acid propylamide]",126 °C
13,"O=C(NCCc1ccccc1)C1(CCCCN2CCN(c3ccc4ccccc4n3)CC2)c2ccccc2-c2ccccc21 [Example 92, 9-[4-(4-quinolin-2-yl-piperazin-1-yl)-butyl]-9H-fluorene-9-carboxylic acid-(phenethyl)-amide]",55 to 57 °C
14,"COCCCNC(=O)C1(CCCCN2CCN(c3ccc4ccccc4n3)CC2)c2ccccc2-c2ccccc21 [Example 93, 9-[4-(4-quinolin-2-yl-piperazin-1-yl)-butyl]-9H-fluorene-9-carboxylic acid-(3-methoxy-propyl)-amide]",87 °C
15,"COC(=O)CCNC(=O)C1(CCCCN2CCN(c3ccc4ccccc4n3)CC2)c2ccccc2-c2ccccc21 [Example 94, 9-[4-(4-quinolin-2-yl-piperazin-1-yl)-butyl]-9H-fluorene-9-carboxylic acid-(2-methoxycarbonyl-ethyl)-amide]",110 to 112 °C
